The record followed here is US8633184B2, “Benzoazepin-oxy-acetic acid derivatives as PPAR-delta agonists used for the increase of HDL-C, lower LDL-C and lower cholesterol” (Janssen Pharmaceutica N.V., priority 2006, dated 2014).

Molecules are shown by their SMILES. Where “and” joins values, the source holds several entries; their conditions need not be identical. Equal values may be shown once. Some results are limits rather than exact numbers.

Holding throughout (assay type): cell-based
Common to all, as to settings: 18-24 hrs

The target of one assay is T1, PPARγ (Homo sapiens, UniProt P37231).
T1 construct: expressed in transfected cells; host or cells: HEK293
T1 sequence (P37231 238-503 limits assumed): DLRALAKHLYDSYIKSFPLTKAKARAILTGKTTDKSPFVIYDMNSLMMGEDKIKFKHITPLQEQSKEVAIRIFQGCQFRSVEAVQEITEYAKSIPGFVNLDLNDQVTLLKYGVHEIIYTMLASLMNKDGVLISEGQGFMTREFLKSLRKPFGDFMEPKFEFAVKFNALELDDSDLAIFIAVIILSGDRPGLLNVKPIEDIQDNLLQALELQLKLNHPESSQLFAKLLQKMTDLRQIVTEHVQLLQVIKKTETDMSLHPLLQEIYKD
The assay can be described thus: Transfection assay, GAL4-PPARγ LBD luciferase reporter in HEK293 cells. The procedure: (§1) HEK293 cells were grown in DMEM/F12 medium supplemented with 10% FBS and glutamine (Invitrogen) and incubated in a 5% CO2 incubator at 37° C. The cells were co-transfected using DMRIE-C reagent (Invitrogen) in serum free medium (Opti-MEM, Invitrogen) with two mammalian expression plasmids, one containing the DNA sequence coding for the ligand binding domains of either PPARα, γ or δ fused to the yeast GAL4 DNA binding domain and the other containing the promoter sequence of the yeast GAL4 (UAS) fused to the firefly luciferase cDNA reporter. The next day, the medium was changed to DMEM/F12 medium supplemented with 5% charcoal treated serum (Hyclone) and glutamine. After 6 hrs the cells were trypsinized and seeded at a density of 50,000 cells/well into 96 well plates and incubated overnight as above. The cells were then treated with test compounds or vehicle and incubated for 18-24 hrs as above. Luciferase reporter activity was measured using the Steady-Glo Luciferase Assay Kit from Promega. DMRIE-C Reagent was purchased from GIBCO Cat. No. 10459-014. OPTI-MEM I Reduced Serum Medium was purchased from GIBCO (Cat. No. 31985). Steady-Glo Luciferase Assay Kit was purchased from Promega (Part #E254B).
(§2) A variety of example compounds have been made and tested, with a range of in vitro results. Below, in Table 2, are representative compounds and data; in some cases, where multiple EC50's are shown, multiple measurements were taken. Naturally, different compounds in Formula (I) may have not activities identical to any one compound below.

The next assay addresses T2, PPARδ (Homo sapiens, UniProt Q03181).
T2 construct: expressed in transfected cells; host or cells: HEK293
T2 sequence (Q03181 211-439 limits assumed): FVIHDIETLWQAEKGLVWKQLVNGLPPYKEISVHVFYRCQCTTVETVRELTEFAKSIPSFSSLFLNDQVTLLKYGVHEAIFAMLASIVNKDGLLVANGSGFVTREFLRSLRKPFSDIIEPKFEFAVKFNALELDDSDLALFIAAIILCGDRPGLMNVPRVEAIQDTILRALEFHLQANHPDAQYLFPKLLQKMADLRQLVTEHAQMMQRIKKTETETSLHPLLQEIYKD
The experiment in a line: Transfection assay, GAL4-PPARδ LBD luciferase reporter in HEK293 cells. As to the method:
as §1, §2

For the next assay, the target named is T3, PPARα (Homo sapiens, UniProt Q07869).
T3 construct: expressed in transfected cells; host or cells: HEK293
T3 sequence (Q07869 239-466 limits assumed): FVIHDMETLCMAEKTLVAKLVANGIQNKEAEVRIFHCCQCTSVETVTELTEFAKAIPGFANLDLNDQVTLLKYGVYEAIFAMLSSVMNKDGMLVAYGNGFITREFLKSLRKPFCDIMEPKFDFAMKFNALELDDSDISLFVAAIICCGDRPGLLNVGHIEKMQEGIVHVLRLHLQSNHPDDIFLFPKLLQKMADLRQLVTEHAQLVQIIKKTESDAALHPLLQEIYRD
The assay can be described thus: Transfection assay, GAL4-PPARα LBD luciferase reporter in HEK293 cells. The procedure:
as §1, §2
(In general: In a reporter assay the amount or activity of a reporter protein is the signal.)

As to `CC1CN(Cc2ccc(-c3ccc(C(F)(F)F)cc3)s2)CCc2ccc(OCC(=O)O)cc21` (stereo not drawn) [compound 25], the EC50 – broadly, the concentration giving half of the maximal effect – on PPARγ was greater than 3000 nM; on PPARδ, 11 nM and 10.8 nM; on PPARα it was greater than 1000 nM.
`CC(c1ccc(-c2ccc(C(F)(F)F)cc2)s1)N1CCc2ccc(OCC(=O)O)cc2CC1` (single isomer, unassigned) [27a]: the EC50 at PPARγ is greater than 1000 nM; at PPARδ, 0.92 nM; on PPARα it was greater than 3000 nM.
As to `O=C(O)COc1ccc2c(c1)CCN(Cc1ccnc(-c3ccc(C(F)(F)F)cc3)n1)CC2` [compound 41], the EC50 at PPARγ is greater than 3000 nM; at PPARδ it was greater than 1000 nM; on PPARα, greater than 3000 nM.
As for `Cc1cc(-c2ccc(C(F)(F)F)cc2)sc1CN1CCc2ccc(OC(C)(C)C(=O)O)cc2CC1` [compound 14], the EC50 is greater than 3000 nM at PPARγ, 398 nM at PPARδ and greater than 3000 nM on PPARα.
Regarding `Cc1nc(-c2ccc(C(F)(F)F)cc2)sc1CN1CCc2ccc(OCC(=O)O)cc2CC1` [compound 5], the 50% effective concentration (EC50) on PPARγ is greater than 3000 nM; on PPARδ it was 51.6 nM; on PPARα, greater than 3000 nM.
For the molecule `O=C(O)COc1ccc2c(c1)CCN(Cc1csc(-c3ccc(C(F)(F)F)cc3)n1)CC2` [compound 17], the EC50 is greater than 3000 nM at PPARγ, 439 nM at PPARδ and greater than 3000 nM at PPARα.
Regarding `CC(c1ccc(-c2ccc(C(F)(F)F)cc2)s1)N1CCc2ccc(OCC(=O)O)cc2CC1` (racemic) [compound 27], the EC50 at PPARγ was greater than 3000 nM; at PPARδ it was < 3 nM and 1.4 nM; at PPARα it was greater than 3000 nM.
Regarding `O=C(O)COc1ccc2c(c1)CCN(Cc1cc(-c3ccc(C(F)(F)F)cc3)on1)CC2` [compound 11], the values for the EC50 at PPARγ, on PPARδ and on PPARα were greater than 3000 nM, 136 nM and greater than 1000 nM, respectively.
Regarding `CC(c1ccc(-c2ccc(C(F)(F)F)cc2)s1)N1CCc2ccc(OCC(=O)O)cc2CC1` (single isomer, unassigned) [27b], the EC50 on PPARγ was greater than 3000 nM; on PPARδ, 12.6 nM and 13.9 nM; on PPARα it was greater than 3000 nM.
For `CC(c1ccc(-c2ccc(C(F)(F)F)cc2)o1)N1CCc2ccc(OCC(=O)O)cc2CC1` (stereo not drawn) [compound 28], the concentration giving a half-maximal response (EC50) was greater than 3000 nM on PPARγ, less than 3 nM at PPARδ and greater than 3000 nM at PPARα.
In the case of `CC(c1ccc(-c2ccc(C(F)(F)F)cc2)o1)N1CCc2ccc(OCC(=O)O)cc2CC1` (single isomer, unassigned) [28b], the EC50 at PPARγ is greater than 3000 nM; on PPARδ, 5.4 nM and 9.8 nM; at PPARα it was greater than 3000 nM.
For `CC(c1cnc(-c2ccc(C(F)(F)F)cc2)s1)N1CCc2ccc(OCC(=O)O)cc2CC1` (stereo not drawn) [compound 29], the values for the EC50 on PPARγ, on PPARδ and on PPARα were 622 nM, less than 3 nM and greater than 3000 nM, respectively.
Turning to `O=C(O)C1(Oc2ccc3c(c2)CCN(Cc2ccc(-c4ccc(C(F)(F)F)cc4)o2)CC3)CC1` [compound 38], the EC50 at PPARγ is greater than 1000 nM; at PPARδ, 18 nM; on PPARα, 31 nM.
As to `CC(c1ccc(-c2ccc(C(F)(F)F)cc2)o1)N1CCc2ccc(OCC(=O)O)cc2CC1` (single isomer, unassigned) [28a], the EC50 on PPARγ was greater than 3000 nM; on PPARδ, 1.8 nM; at PPARα, greater than 3000 nM.
For the molecule `O=C(O)COc1ccc2c(c1)CCN(Cc1ccc(-c3ccc(C(F)(F)F)cc3)nc1)CC2` [compound 46], the results for the EC50 on PPARγ, on PPARδ and at PPARα were greater than 3000 nM, 312 nM and greater than 1000 nM, respectively.
Turning to `CC(C)(Oc1ccc2c(c1)CCN(Cc1cc(-c3ccc(C(F)(F)F)cc3)ns1)CC2)C(=O)O` [compound 2], the EC50 at PPARγ is greater than 3000 nM; on PPARδ, 162 nM; on PPARα, greater than 3000 nM.
As for `O=C(O)COc1ccc2c(c1)CCN(Cc1cncc(-c3ccc(C(F)(F)F)cc3)n1)CC2` [compound 42], the EC50 at PPARγ is greater than 3000 nM; at PPARδ, greater than 1000 nM; at PPARα, greater than 3000 nM.
For the molecule `O=C(O)COc1ccc2c(c1)CCN(Cc1ccc(-c3ccc(Cl)cc3)o1)CC2` [compound 35], the concentration giving a half-maximal response (EC50) on PPARγ was greater than 3000 nM; at PPARδ, 169 nM; on PPARα, greater than 3000 nM.
In the case of `O=C(O)COc1ccc2c(c1)CCN(Cc1cccc(-c3ccc(C(F)(F)F)cc3)n1)CC2` [compound 43], the EC50 on PPARγ, at PPARδ and at PPARα was greater than 3000 nM throughout.
`O=C(O)COc1ccc2c(c1)CCN(Cc1cc(-c3ccc(C(F)(F)F)cc3)ns1)CC2` [compound 1]: the 50% effective concentration (EC50) at PPARγ is greater than 3000 nM; on PPARδ, 34.1 nM and 66.6 nM; at PPARα, 546 nM and 758 nM.
Turning to `O=C(O)COc1ccc2c(c1)CCN(CCc1ccc(-c3ccc(C(F)(F)F)cc3)s1)CC2` [compound 22], the EC50 at PPARγ, on PPARδ and on PPARα was greater than 3000 nM in each case.
Consider `O=C(O)COc1ccc2c(c1)CCN(Cc1cc(-c3ccc(C(F)(F)F)cc3)cs1)CC2` [compound 23], for which the EC50 on PPARγ was greater than 3000 nM; on PPARδ it was 109 nM and 70.2 nM; on PPARα it was greater than 3000 nM.
As to `O=C(O)COc1ccc2c(c1)CCN(Cc1ccc(-c3ccc(C(F)(F)F)cc3)cc1)CC2` [compound 40], the values for the EC50 at PPARγ, on PPARδ and at PPARα were greater than 3000 nM, greater than 1000 nM and greater than 3000 nM, respectively.
For the molecule `O=C(O)COc1ccc2c(c1)CCN(Cc1ccc(-c3ccc(C(F)(F)F)cc3)o1)CC2` [compound 9], the EC50 on PPARγ is greater than 3000 nM; at PPARδ it was 74.2 nM and 70.9 nM; at PPARα, greater than 3000 nM.
With `O=C(O)COc1ccc2c(c1)CCN(Cc1nc(-c3ccc(C(F)(F)F)cc3)ns1)CC2` [compound 3], the EC50 on PPARγ was greater than 3000 nM; on PPARδ it was 143 nM; on PPARα, greater than 3000 nM.
For the molecule `CC(C)(Oc1ccc2c(c1)CCN(Cc1ccc(-c3ccc(C(F)(F)F)cc3)s1)CC2)C(=O)O` [compound 8], the EC50 is greater than 3000 nM at PPARγ; 85.9 nM and 123 nM on PPARδ; greater than 1000 nM at PPARα.
Turning to `O=C(O)COc1ccc2c(c1)CCN(CCc1ccc(-c3ccc(C(F)(F)F)cc3)o1)CC2` [compound 45], the EC50 on PPARγ is greater than 3000 nM; on PPARδ, greater than 1000 nM; on PPARα, greater than 3000 nM.
Turning to `Cc1c(-c2ccc(C(F)(F)F)cc2)csc1CN1CCc2ccc(OC(C)(C)C(=O)O)cc2CC1` [compound 16], the EC50 on PPARγ was greater than 3000 nM; on PPARδ, 375 nM; on PPARα, greater than 3000 nM.
As to `Cc1nc(-c2ccc(C(F)(F)F)cc2)oc1CN1CCc2ccc(OCC(=O)O)cc2CC1` [compound 18], the concentration for a half-maximal effect (EC50) on PPARγ was greater than 3000 nM; on PPARδ it was 174 nM; at PPARα, greater than 3000 nM.
On to `Cc1cc(-c2ccc(C(F)(F)F)cc2)oc1CN1CCc2ccc(OCC(=O)O)cc2CC1` [compound 36], for which the EC50 on PPARγ was greater than 3000 nM; on PPARδ, 29.2 nM; at PPARα, greater than 3000 nM.
In the case of `Cc1cc(-c2ccc(C(F)(F)F)cc2)sc1CN1CCc2ccc(OCC(=O)O)cc2CC1` [compound 13], the EC50 on PPARγ is greater than 3000 nM; on PPARδ, 174 nM and 193 nM; on PPARα, greater than 3000 nM.
Regarding `O=C(O)COc1ccc2c(c1)CCN(Cc1ccc(-c3ccc(Cl)cc3Cl)o1)CC2` [compound 33], the EC50 at PPARγ was greater than 3000 nM; at PPARδ, 148 nM and 167 nM; at PPARα, greater than 3000 nM.
For `CC(C)(Oc1ccc2c(c1)CCN(Cc1ccc(-c3ccc(C(F)(F)F)cc3)o1)CC2)C(=O)O` [compound 10], the EC50 on PPARγ was greater than 3000 nM; at PPARδ it was 53 nM and 87.7 nM; on PPARα, greater than 3000 nM.
Take `O=C(O)COc1ccc2c(c1)CCN(Cc1ccc(-c3ccc(OC(F)(F)F)cc3)s1)CC2` [compound 32]: the EC50 is greater than 3000 nM at PPARγ, 157 nM on PPARδ and greater than 3000 nM at PPARα.
`O=C(O)COc1ccc2c(c1)CCN(Cc1ccc(-c3ccc(Cl)cc3Cl)s1)CC2` [compound 31]: the EC50 was greater than 3000 nM at PPARγ, 237 nM at PPARδ and greater than 3000 nM on PPARα.
